# Assay results as given in ChEMBL document CHEMBL1201862, “PubChem BioAssay data set” (2004).
# Activity calls are given as the source filed them.
# Legend:
# [1] = molecular target: Luciferin 4-monooxygenase (Photinus pyralis, UniProt P08659); assay: firefly luciferase enzyme inhibitors, dose response, biochemical, luminescence (AID 1891)
# [2] = molecular target: Neuropeptide Y receptor type 2 (Homo sapiens, UniProt P49146); assay type: functional, cell-based;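 also: HEK293 cells expressing the receptor and a CNG channel; stimulus was NPY near EC95 followed by isoproterenol to raise cAMP; antagonist potency measured as restoring cAMP signal that NPY suppresses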
# Chain of Neuropeptide Y receptor type 2 (P49146 whole entry): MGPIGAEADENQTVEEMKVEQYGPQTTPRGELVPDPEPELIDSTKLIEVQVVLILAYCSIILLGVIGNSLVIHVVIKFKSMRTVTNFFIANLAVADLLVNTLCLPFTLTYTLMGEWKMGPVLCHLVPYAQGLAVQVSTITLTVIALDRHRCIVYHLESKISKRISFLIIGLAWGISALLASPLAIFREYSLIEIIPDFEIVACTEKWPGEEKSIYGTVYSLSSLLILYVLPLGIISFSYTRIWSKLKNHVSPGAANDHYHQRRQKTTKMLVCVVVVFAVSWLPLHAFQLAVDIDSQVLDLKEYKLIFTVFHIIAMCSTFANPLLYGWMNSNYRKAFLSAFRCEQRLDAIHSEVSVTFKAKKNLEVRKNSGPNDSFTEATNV
# [3] = Luminescence Cell-Based Dose Confirmation HTS to Identify Inhibitors of Platelet Dense Granule Release. [Related pubchem assays: 1663 (Primary HTS), 1678 (Summary of Project)]; assay type: functional
# [4] = molecular target: Neuropeptide Y receptor type 1 (Homo sapiens, UniProt P25929); assay type: functional;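 also: HEK293 cells with a CNG channel challenged with NPY then isoproterenol; potency as antagonist that reverses NPY suppression of cAMP signal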
# Chain of Neuropeptide Y receptor type 1 (P25929 whole entry): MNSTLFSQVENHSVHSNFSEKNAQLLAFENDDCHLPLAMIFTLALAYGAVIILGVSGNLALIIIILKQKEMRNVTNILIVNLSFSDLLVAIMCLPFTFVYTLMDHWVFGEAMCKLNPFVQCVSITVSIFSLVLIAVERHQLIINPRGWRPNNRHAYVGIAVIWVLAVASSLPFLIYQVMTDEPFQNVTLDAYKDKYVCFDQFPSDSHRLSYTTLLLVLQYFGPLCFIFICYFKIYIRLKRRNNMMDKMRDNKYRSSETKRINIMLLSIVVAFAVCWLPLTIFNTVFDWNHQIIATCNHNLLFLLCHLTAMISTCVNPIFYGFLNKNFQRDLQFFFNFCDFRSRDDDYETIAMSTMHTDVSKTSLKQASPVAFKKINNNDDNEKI
# Streptococcus = assay: Luminescence Microorganism-Based Dose Response Follow up to Identify Compounds Cytotoxic to Streptococcus. [Related pubchem assays: 1677 (Project Summary), 1915, 1914, 1902 (Retest at Dose), 1900 (Counter Screen), 1662 (Primary HTS)]; assay type: functional, organism-based
# Estrogen receptor beta [5] = molecular target: T1, Estrogen receptor beta (Homo sapiens, UniProt Q92731);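 also: recombinant ER-beta bound to coactivator SRC1 peptide in presence of estradiol agonist; inhibitors block coactivator peptide binding and lower the FRET signal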
# T1 sequence (Q92731 whole entry): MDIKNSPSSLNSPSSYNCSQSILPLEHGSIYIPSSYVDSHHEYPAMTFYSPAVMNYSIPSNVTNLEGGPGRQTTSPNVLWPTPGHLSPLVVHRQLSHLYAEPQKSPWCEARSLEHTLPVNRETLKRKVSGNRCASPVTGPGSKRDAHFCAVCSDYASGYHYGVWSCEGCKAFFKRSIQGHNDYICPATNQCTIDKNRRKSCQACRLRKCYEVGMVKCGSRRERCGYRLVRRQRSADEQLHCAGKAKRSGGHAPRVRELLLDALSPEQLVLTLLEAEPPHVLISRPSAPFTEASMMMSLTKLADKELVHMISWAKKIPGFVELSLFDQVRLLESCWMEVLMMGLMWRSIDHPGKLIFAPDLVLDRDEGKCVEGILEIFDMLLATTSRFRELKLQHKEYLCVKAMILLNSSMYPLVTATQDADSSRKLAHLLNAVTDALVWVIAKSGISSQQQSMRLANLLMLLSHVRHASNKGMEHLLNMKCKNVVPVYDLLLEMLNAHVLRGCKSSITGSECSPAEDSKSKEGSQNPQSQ
# Estrogen receptor beta [6] = molecular target: T1, Estrogen receptor beta; assay: ERβ–SRC-3 coactivator interaction inhibitors, confirmation, orthogonal assay, biochemical, ELISA, streptavidin-HRP readout (AID 1060)
# [7] = cytotoxicity toward Colo320 cells – cell-based, CellTiter-Glo luminescence, IC50, dose response (AID 1117334); assay type: functional; conditions: COLO 320
# [8] = growth suppression of PTEN-null colon cells, dose response, cell-based, HCT116 PTEN knockout (AID 1047); assay type: functional;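 also: HCT116 colon tumor cells with PTEN knocked out; cells exposed to compound for 60 hours before readout; potency for loss of cell viability measured by luminescence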
# [9] = SNU-C1 cell viability reduction, dose response, CellTiter-Glo luminescence (AID 1117323); assay type: functional, cell-based
# [10] = molecular target: T2, Ubiquitin-conjugating enzyme E2 N (Homo sapiens, UniProt P61088); assay type: functional;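 also: Dose-response confirmation in a TR-FRET assay detecting UBC13-driven polyubiquitin chain formation, inhibition measured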
# T2 sequence (P61088 whole entry): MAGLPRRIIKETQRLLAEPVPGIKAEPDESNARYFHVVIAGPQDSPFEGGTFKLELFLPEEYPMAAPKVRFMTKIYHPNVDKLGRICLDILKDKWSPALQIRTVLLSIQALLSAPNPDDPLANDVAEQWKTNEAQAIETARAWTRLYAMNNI
# [11] = growth suppression of beta-catenin-knockout colon cells, dose response, cell-based, HCT116, human colon tumor (AID 1045); assay type: functional;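 also: HCT116 colon tumor cells with beta catenin knocked out; cells exposed to compound for 60 hours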
# [12] = half-maximal inhibitory concentration for glucagon-like peptide-1 release, STC-1 cell line, dose-response (AID 1117345); assay type: functional, cell-based
# [13] = RKO cell viability reduction, dose response, CellTiter-Glo luminescence (AID 1117322); assay type: functional
# [14] = cytotoxicity in HPDE-C7 cells, cell-based, fluorescence, HTS (AID 430); assay type: functional; conditions: Homo sapiens
# [15] = cytotoxicity toward HCT116 cells – cell-based, CellTiter-Glo luminescence, IC50, dose response (AID 1117332); assay type: functional; conditions: HCT-116
# [16] = CellTiter-Glo luminescent dose response of DLD-1 viability loss (AID 1117352); assay type: functional
# [17] = Concentration-dependent survival of SW480 colon cancer line, luminescence detection with CellTiter-Glo, half-maximal inhibitory concentration (AID 1117338); assay type: functional
# [18] = HCT116 cell viability decrease, GSK3B pretreatment – CellTiter-Glo, IC50, dose response (AID 1117339); assay type: functional; conditions: HCT-116
# [19] = Glucagon-like peptide 1 release potency, NCI-H716 cell line, dose-response, half-maximal inhibitory concentration (AID 1117344); assay type: functional, cell-based
# [20] = cytotoxicity toward HT-29 cells – cell-based, CellTiter-Glo luminescence, IC50, dose response (AID 1117330); assay type: functional
# [21] = cytotoxicity in KRAS-transformed pancreatic duct cells, primary screen, cell-based, fluorescence, HTS (AID 431); assay type: functional; conditions: Homo sapiens;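 also: cell line used: HPDE-C7K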
# Protein RecA = molecular target: T3, Protein RecA (Mycobacterium tuberculosis, UniProt P9WHJ3); assay: Fluorescence Cell-Free Homogeneous Dose Retest to Identify Inhibitors of RecA-Intein Splicing Activity. [Related pubchem assays (depositor defined):AID2097, AID2223, AID489010, AID492950]; assay type: functional
# T3 sequence (P9WHJ3 whole entry): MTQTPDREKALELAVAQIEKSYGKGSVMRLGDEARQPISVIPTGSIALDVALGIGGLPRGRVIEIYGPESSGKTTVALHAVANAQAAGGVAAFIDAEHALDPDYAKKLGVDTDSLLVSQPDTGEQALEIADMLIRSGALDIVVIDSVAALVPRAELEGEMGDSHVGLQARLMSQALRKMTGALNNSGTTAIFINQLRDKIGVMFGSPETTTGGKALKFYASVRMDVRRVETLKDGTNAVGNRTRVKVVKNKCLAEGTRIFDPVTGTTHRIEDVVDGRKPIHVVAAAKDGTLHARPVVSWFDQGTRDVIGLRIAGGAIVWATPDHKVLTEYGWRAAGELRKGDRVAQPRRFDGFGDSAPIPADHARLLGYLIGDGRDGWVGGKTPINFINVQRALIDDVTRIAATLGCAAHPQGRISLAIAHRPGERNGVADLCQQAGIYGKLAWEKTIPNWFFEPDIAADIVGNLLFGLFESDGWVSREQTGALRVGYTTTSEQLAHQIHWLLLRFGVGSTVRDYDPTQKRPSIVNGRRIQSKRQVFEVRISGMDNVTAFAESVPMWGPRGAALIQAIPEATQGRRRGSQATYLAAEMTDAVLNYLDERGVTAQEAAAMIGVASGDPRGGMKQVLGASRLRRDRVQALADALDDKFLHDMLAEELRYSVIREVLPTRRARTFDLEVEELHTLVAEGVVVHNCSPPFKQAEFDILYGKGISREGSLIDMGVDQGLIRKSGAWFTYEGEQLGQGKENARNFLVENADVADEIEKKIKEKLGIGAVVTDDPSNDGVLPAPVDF
# [22] = molecular target: T4, Replicative DNA helicase DnaB (Mycobacterium tuberculosis, UniProt P9WMR3); assay: DnaB intein splicing inhibitors, dose response, biochemical, cell-free fluorescence (AID 449749); assay type: functional
# T4 sequence (P9WMR3 whole entry): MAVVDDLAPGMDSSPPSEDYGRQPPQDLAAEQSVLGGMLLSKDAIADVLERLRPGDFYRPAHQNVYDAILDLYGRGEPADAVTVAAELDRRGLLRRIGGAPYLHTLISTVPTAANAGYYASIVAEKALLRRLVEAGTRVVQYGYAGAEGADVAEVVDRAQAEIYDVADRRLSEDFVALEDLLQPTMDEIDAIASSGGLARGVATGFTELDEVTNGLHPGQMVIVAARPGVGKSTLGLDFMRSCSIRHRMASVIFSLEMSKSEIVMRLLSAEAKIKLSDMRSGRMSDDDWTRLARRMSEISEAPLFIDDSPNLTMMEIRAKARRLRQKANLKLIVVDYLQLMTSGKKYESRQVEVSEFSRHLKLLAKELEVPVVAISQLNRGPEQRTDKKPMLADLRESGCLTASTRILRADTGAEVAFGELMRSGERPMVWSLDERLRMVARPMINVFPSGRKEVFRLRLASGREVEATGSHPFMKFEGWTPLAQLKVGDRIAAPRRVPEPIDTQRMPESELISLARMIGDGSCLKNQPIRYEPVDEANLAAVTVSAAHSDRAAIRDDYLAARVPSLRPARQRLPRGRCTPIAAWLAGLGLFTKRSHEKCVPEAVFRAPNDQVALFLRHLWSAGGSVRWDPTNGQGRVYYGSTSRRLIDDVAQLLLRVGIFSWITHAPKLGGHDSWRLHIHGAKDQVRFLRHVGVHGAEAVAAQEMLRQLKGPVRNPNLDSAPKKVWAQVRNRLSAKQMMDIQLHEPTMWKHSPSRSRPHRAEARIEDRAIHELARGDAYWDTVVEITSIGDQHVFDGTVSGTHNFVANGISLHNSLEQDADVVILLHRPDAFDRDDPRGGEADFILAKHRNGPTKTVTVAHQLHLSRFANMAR
# [23] = molecular target: T5, Mannose-6-phosphate isomerase (Homo sapiens, UniProt P34949); assay: human PMI inhibitors, high substrate, primary screen, biochemical, fluorescence intensity, high mannose 6-phosphate (AID 1220)
# T5 sequence (P34949 whole entry): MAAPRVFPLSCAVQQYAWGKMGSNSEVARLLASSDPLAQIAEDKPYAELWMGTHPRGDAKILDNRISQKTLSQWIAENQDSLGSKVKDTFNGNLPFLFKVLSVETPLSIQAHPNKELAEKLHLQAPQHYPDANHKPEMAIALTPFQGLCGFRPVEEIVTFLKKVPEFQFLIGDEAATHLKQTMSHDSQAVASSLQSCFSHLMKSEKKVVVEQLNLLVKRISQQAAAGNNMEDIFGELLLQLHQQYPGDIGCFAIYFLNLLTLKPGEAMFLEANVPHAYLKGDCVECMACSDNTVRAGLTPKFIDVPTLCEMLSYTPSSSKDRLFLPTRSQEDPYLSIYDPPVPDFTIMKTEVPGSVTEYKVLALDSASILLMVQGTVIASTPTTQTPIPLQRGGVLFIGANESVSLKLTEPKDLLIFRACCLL
# [24] = molecular target: T5, Mannose-6-phosphate isomerase; assay: inhibitors of human PMI, primary screen, biochemical, fluorescence intensity, coupled assay (AID 1209)
# Genome polyprotein = Genome polyprotein (dengue virus type 2, UniProt P29990); assay: Dengue-2 NS5 methyltransferase inhibitors, primary screen, biochemical, confirmation dose response (AID 588689); assay type: functional
# Chain of Genome polyprotein (P29990 2492-3391 limits assumed): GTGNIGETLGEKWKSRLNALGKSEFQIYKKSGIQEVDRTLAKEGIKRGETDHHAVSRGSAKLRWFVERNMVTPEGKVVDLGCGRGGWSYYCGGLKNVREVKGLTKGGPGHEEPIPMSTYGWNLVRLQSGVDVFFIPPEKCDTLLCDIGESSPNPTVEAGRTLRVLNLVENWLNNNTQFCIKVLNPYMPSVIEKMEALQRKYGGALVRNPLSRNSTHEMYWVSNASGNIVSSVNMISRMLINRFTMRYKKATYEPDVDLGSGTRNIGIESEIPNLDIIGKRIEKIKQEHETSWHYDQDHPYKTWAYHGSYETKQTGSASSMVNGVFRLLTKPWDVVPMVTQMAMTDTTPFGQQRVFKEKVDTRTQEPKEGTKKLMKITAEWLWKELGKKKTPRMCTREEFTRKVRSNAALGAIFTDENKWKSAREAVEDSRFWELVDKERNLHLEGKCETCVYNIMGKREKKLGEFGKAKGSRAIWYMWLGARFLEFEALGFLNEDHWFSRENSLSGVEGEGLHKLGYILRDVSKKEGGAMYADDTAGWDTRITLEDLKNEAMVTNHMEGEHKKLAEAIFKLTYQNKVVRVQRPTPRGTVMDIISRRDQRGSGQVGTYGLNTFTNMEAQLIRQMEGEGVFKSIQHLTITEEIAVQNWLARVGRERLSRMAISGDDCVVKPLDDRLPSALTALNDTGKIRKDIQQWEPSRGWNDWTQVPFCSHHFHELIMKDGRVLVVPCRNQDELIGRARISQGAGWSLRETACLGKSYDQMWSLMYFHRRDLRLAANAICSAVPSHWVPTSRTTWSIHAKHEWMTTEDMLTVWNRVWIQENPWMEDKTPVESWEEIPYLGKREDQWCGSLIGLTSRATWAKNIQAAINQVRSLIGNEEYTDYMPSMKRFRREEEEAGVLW
# Chain of Luciferin 4-monooxygenase (P08659 whole entry): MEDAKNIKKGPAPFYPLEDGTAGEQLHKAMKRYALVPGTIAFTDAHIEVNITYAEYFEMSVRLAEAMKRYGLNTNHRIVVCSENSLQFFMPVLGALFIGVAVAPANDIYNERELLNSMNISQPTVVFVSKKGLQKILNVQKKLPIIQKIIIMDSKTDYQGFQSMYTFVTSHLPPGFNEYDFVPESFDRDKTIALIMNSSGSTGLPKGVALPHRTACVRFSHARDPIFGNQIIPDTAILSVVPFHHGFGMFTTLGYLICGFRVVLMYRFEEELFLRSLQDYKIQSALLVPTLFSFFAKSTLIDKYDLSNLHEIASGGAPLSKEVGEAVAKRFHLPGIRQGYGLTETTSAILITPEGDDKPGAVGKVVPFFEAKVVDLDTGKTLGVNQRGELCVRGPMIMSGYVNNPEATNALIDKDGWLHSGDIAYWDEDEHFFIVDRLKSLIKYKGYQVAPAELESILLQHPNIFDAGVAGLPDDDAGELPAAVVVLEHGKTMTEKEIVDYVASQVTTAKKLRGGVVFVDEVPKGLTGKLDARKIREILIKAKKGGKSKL
smiles,measurement,setting,value
Cc1ccc(-c2cc(C(=O)Nc3ccc4c(c3)OCCO4)c3ccccc3n2)cc1,EC50,[1],1.06 µM (active)
same,IC50,[2],5.35 µM (active)
same,EC50,[3],16.9 µM (active)
same,IC50,[4],5.01 µM (active)
O=C(CSc1ccccc1)N1c2ccccc2Sc2ccccc21,EC50,Streptococcus,239 µM (active)
CCOC(=O)Cn1cnc2sc3c(c2c1=O)CCC3,IC50,Estrogen receptor beta [5],3.62 µM (active)
same,IC50,Estrogen receptor beta [6],106 µM (not active)
CN1CCN(CCCN2c3ccccc3Sc3ccc(C(F)(F)F)cc32)CC1,IC50,[7],2.36 µM (active)
same,EC50,[8],11.9 µM (active)
same,IC50,[9],2.63 µM (active)
same,IC50,[10],> 20 µM (inactive)
same,EC50,[11],11.7 µM (active)
same,IC50,[12],> 40 µM (inactive)
same,IC50,[13],0.565 µM (active)
same,EC50,[14],11.9 µM (active)
same,IC50,[15],7.22 µM (inactive)
same,IC50,[16],7.35 µM (inactive)
same,IC50,[17],2.72 µM (active)
same,IC50,[18],3.23 µM (active)
same,IC50,[19],> 40 µM (inactive)
same,IC50,[20],2.81 µM (active)
same,EC50,[21],7.72 µM (active)
Cn1c(/N=C/c2c(O)ccc3ccccc23)nc2ccccc21,EC50,Protein RecA,5.19 µM (active)
same,AC50,[22],7.16 µM (active)
same,IC50,[23],14.8 µM (active)
same,IC50,[24],> 50 µM (not active)
same,IC50,Genome polyprotein,9.6 µM (active)
